In article PMC11295118, “Harnessing the Intrinsic Chemical Reactivity of the Mycotoxin Patulin for Immunosensing” (Analytical Chemistry, 2024):
Where a name gives a salt, the structure may show the parent alone.

Tested on: monoclonal antibodies raised against BSA–Ia
Assay: Specificity of the monoclonal antibodies by competitive ELISA
Type: binding, mice
Conditions: for recognition by the antibodies: competitors tested separately (without derivatization)
Text: The high affinity of the rabbit antisera for patulin after its transformation into adduct I motivated us to pursue the production of monoclonal antibodies (mAbs), given their high value in industry for the development of rapid commercial assays. To this end, standard hybridoma technology was employed with splenocytes from mice immunized with the bioconjugate BSA–Ia, the immunogen that elicited the best response in rabbits (Supporting Information). From two independent cell fusion experiments, three antibody-producing hybridomas capable of recognizing adduct I were generated. Following affinity purification, the mAbs were characterized by direct and indirect competitive ELISA using the homologous and the heterologous conjugate, i.e., based on hapten Ia or Ib, respectively. As summarized in Table S2, the three antibodies successfully recognized both coating conjugates (OVA–Ia and OVA–Ib), yielding IC50 values for patulin below 7.0 nM. […] In the direct competitive format, even better IC50 values were found with mAbs #13 and #17 when used with the homologous enzyme tracer HRP–Ia (IC50 = 0.7–0.8 nM). […]
dissolved in 8‐10 mL of 20 mM phosphate buffer, pH 7.4, and filtered through a nitrocellulose membrane (0.45 μm pore diameter). The resulting filtrate was purified by affinity chromatography with a 5 mL HiTrap Protein G HP column, and the antibody‐containing fractions were gathered and the buffer was exchanged to 20 mM phosphate buffer, pH 7.4, using Amicon Ultra 4 10k centrifugal devices. Final antibody concentration was calculated using the absorption at 280 nm and a molar extinction coefficient of 1.4 L g‐1 c m ‐1. The purified antibodies were precipitated with 1 volume of saturated ammonium sulphate for long‐term storage at 4 °C. […]
Antibody‐coated direct competitive ELISA. […] Following incubation during 10 min at rt, the reaction was stopped by adding 100 µL per well of 1 M H2SO4, and the absorbance was […]
Following incubation during 10 min at rt, the reaction was stopped by adding 100 µL per well of 1 M H2SO4, and the absorbance was immediately read. […]

| Compound | recognition by the antibodies | inhibition curves compared with patulin after reacting with 7a (adduct I or derivatized patulin used as competitors) |
| --- | --- | --- |
| O=C1C=C2C(=CCOC2O)O1 (stereo not drawn) [patulin] | did not recognize | – |
| O=C/C(CC(=O)O)=C1\Sc2ccccc2S[C@H]1CO [adduct I] | – | overlapped |
| [Na][S]c1ccccc1[S][Na] [7a, sodium salt of benzene-1,2-dithiol] | did not recognize | – |
